Settings: Liquid, Vibrating tube method

CC(C)CCCC(C)CCCC(C)CCCCC(C)CCCC(C)CCCC(C)C (stereo unspecified) [2,6,10,15,19,23-hexamethyltetracosane]
mass density [kg/m3]
Settings	298.15 K	323.15 K	348.15 K	373.15 K	398.15 K
100 kPa	804.9	789	773	–	–
1000 kPa	805.4	789.6	773.7	758	742.1
5000 kPa	807.8	792.3	776.7	761.3	745.9
10000 kPa	810.7	795.5	780.3	765.3	750.4
15000 kPa	813.4	798.6	783.7	769.1	754.6
20000 kPa	816.1	801.5	787	772.7	758.6
30000 kPa	821.2	807.1	793.2	779.5	766.1
40000 kPa	826	812.3	799	785.8	772.9
45000 kPa	828.3	814.8	801.7	788.7	776.1
50000 kPa	830.5	817.2	804.3	791.6	779.1
60000 kPa	834.8	821.9	809.3	797.1	785

Cc1ccccc1 [toluene]
mass density [kg/m3]
Settings	298.15 K	323.15 K	348.15 K	373.15 K	398.15 K
100 kPa	862	838.7	814.6	–	–
1000 kPa	862.7	839.5	815.6	791.1	765.3
5000 kPa	865.7	843.1	819.8	796	771.3
10000 kPa	869.4	847.4	824.7	801.8	778.3
15000 kPa	873	851.5	829.5	807.3	784.7
20000 kPa	876.4	855.4	834	812.5	790.8
30000 kPa	882.9	862.7	842.4	822	801.6
40000 kPa	889	869.5	850	830.6	811.2
45000 kPa	891.9	872.7	853.6	834.6	815.7
50000 kPa	894.7	875.9	857.1	838.4	819.9
60000 kPa	900.2	881.9	863.8	845.8	828
